Values quoted from earlier work, collected in patent publication US20160143861A1, “COMPOSITIONS COMPRISING HYDROXYTYROSOL, RESVERATROL, LYCOPENE, FLAVANOLS, AND/OR FLAVONOIDS AND USE THEREOF” (SPECIALTY NUTRITION GROUP, INC., priority 2013, published 2016).

time of peak plasma concentration after ingestion: 5 to 10 min
SMILES: OCCc1ccc(O)c(O)c1 [Hydroxytyrosol]
